Literature values as cited in patent publication US12226415B2, “Methods and compositions for the treatment of hair loss” (Aneira Pharma Inc., priority 2019, dated 2025).

What was measured:
hair growth = conditions: for hair growth: McCarey et al. 2004
[1] = propylene glycol, methanol, ethanol and 2-propanol
[2] = tested on: production of dihydrotestosterone (DHT); conditions: oral; including in the prostate gland and the scalp
intraocular pressure = conditions: glaucomatous monkey eyes, Gagliuso et al. 2004
[3] = tested on: elevated intraocular pressure; conditions: some human glaucoma patients non-responsive to latanoprost, Gandolfi 2003
human FP receptors = human FP receptors (Homo sapiens, UniProt P43088)
Sequence of human FP receptors (P43088 whole entry): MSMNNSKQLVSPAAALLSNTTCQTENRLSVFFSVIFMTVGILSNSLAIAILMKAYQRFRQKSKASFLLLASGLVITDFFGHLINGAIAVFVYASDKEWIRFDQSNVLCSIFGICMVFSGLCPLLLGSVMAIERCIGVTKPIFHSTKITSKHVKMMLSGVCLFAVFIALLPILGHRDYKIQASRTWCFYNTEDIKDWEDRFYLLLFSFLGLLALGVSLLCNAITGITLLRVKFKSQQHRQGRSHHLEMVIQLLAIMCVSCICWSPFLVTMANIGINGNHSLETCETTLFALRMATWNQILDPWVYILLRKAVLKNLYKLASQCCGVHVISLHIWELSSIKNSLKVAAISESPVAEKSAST

CCCCCCCC(=O)CC[C@@H]1[C@@H](C/C=C\CCCC(=O)O)[C@@H](O)C[C@H]1O [uenoprostone free acid]
hair growth (hair growth): no hair growth

CC(C)OC(=O)CCC/C=C\C[C@@H]1[C@@H](CC[C@@H](O)CCc2ccccc2)[C@H](O)C[C@@H]1O [latanoprost, isopropyl ester of 17-phenyl-13,14-dihydro prostaglandin F2a]
solubility (concentration that can be obtained) [1]: ≥ 5%

CC(C)(C)NC(=O)[C@H]1CC[C@H]2[C@@H]3CC[C@H]4NC(=O)C=C[C@]4(C)[C@H]3CC[C@]12C [finasteride, (1S,3aS,3bS,5aR,9aR,9bS,11aS)—N-tert-butyl-9a,11a-dimethyl-7-oxo-1,2,3,3a,3b,4,5,5a,6,9b,10,11-dodecahydroindeno[5,4-f]quinoline-1-carboxamide]
decrease of production of dihydrotestosterone (DHT) [2]: about 70%

CCNC(=O)CCC/C=C\C[C@@H]1[C@@H](/C=C/[C@@H](O)CCc2ccccc2)[C@H](O)C[C@@H]1O [bimatoprost]
effect on elevated intraocular pressure in combination with latanoprost (intraocular pressure): additive | response in reducing elevated intraocular pressure [3]: responsive

CCCCCCCC(=O)CC[C@@H]1[C@@H](C/C=C\CCCC(=O)OC(C)C)[C@@H](O)C[C@H]1O [Uenoprostone isopropyl ester]
hair growth (hair growth): no hair growth | incidence of iris pigmentation and eyelash changes (hair growth; two randomized clinical trials, 0.15%): Low incidence

O=C(O)CCC/C=C\C[C@@H]1[C@@H](CC[C@@H](O)CCc2ccccc2)[C@H](O)C[C@@H]1O [Latanoprost free acid]
potency relative to PGF2α (human FP receptors): twice the potency of PGF2α
